# System: moderate-to-severe chronic spontaneous urticaria (CSU)
# Experiment: Phase 2 CSU study: itch severity score over 7 days (ISS7)
# Format: in vivo, human
# Conditions: 400 mg BID; for Change from Baseline in ISS7 at Week 12, LS Mean / Change from Baseline in ISS7 at Week 12, LS Mean Diff vs. placebo / Change from Baseline in ISS7 at Week 12, Mean: Omalizumab-naïve population
# Excerpt: The study comprises a 12 week, randomized, double-blind, placebo-controlled, multi-center, dose-ranging efficacy and safety phase, followed by a 40 week open label extension (OLE) phase (see FIG. 1). The study consists of three phases and an optional OLE phase. […] Clinically, CSU is characterized by the spontaneous and recurrent appearance of pruritic hives. The proposed primary endpoints were the UAS7 at Week 12 in EU and EU reference countries and the ISS7 in the US. Regardless of where a participant was from, all assessments were the same. The UAS7 score is a composite score containing both the HSS7 and the ISS7. This allowed a global assessment of the two key components of urticaria: hives and itch. […] The UAS is a validated PRO measure. […] The daily UAS scores range from 0 to 6 point/day. […] Patients were to complete the UAS using the e-diary. […] The following secondary endpoints were to be analyzed using the same approach as for the primary endpoint: • Change from baseline in UAS7 at Week 4 • Change from baseline in UAS7 at Week 12 (for US and US reference countries) • Change from baseline in ISS7 at Week 12 (except US and US reference countries) • Change from baseline in HSS7 at Week 12
# [1] = Baseline Eosinophils (10^9/L) <0.150
# [2] = Baseline Eosinophils (10^9/L) <0.165 (Median)
# [3] = Baseline Eosinophils (10^9/L) <0.3
# [4] = Baseline Eosinophils (10^9/L) ≥0.150
# [5] = Baseline Eosinophils (10^9/L) ≥0.165 (Median)
# [6] = Baseline Eosinophils (10^9/L) ≥0.3
# [7] = Baseline H1-antihistamines dose 1-fold
# [8] = Baseline H1-antihistamines dose 2 to 4-fold standard dose
# [9] = Baseline Total IgE (IU/mL) <100
# [10] = Baseline Total IgE (IU/mL) <300
# [11] = Baseline Total IgE (IU/mL) ≥100
# [12] = Baseline Total IgE (IU/mL) ≥300
# [13] = Duration of disease (years) 2-10
# [14] = Duration of disease (years) >10
smiles,measurement,setting,value
"CC(C)(C=C(C#N)C(=O)N1CCC[C@@H](n2nc(-c3ccc(Oc4ccccc4)cc3F)c3c(N)ncnc32)C1)N1CCN(C2COC2)CC1 [rilzabrutinib, (R)-2-[3-[4-amino-3-(2-fluoro-4-phenoxy-phenyl)pyrazolo[3,4-d]pyrimidin-1-yl]piperidine-1-carbonyl]-4-methyl-4-[4-(oxetan-3-yl)piperazin-1-yl]pent-2-enenitrile]","Change from Baseline in ISS7 at Week 12, LS Mean",Age group (years) <44 (Median),−7.05
same,"Change from Baseline in ISS7 at Week 12, LS Mean Diff vs. placebo",Age group (years) <44 (Median),−2.58
same,"Change from Baseline in ISS7 at Week 12, Mean",Age group (years) <44 (Median),−5.97
same,"Change from Baseline in ISS7 at Week 12, LS Mean",Age group (years) <65,−7.37
same,"Change from Baseline in ISS7 at Week 12, LS Mean Diff vs. placebo",Age group (years) <65,−1.71
same,"Change from Baseline in ISS7 at Week 12, Mean",Age group (years) <65,−7.17
same,"Change from Baseline in ISS7 at Week 12, LS Mean",Age group (years) ≥44 (Median),−8.10
same,"Change from Baseline in ISS7 at Week 12, LS Mean Diff vs. placebo",Age group (years) ≥44 (Median),−1.50
same,"Change from Baseline in ISS7 at Week 12, Mean",Age group (years) ≥44 (Median),−8.62
same,"Change from Baseline in ISS7 at Week 12, Mean",Age group (years) ≥65,−13.00
same,"Change from Baseline in ISS7 at Week 12, LS Mean",Baseline BHRA BHRA+,−8.42
same,"Change from Baseline in ISS7 at Week 12, LS Mean Diff vs. placebo",Baseline BHRA BHRA+,−3.03
same,"Change from Baseline in ISS7 at Week 12, Mean",Baseline BHRA BHRA+,−9.57
same,"Change from Baseline in ISS7 at Week 12, LS Mean",Baseline BHRA BHRA−,−6.59
same,"Change from Baseline in ISS7 at Week 12, Mean",Baseline BHRA BHRA−,−6.75
same,"Change from Baseline in ISS7 at Week 12, LS Mean Diff vs. placebo",Baseline BMI (kg/m^2) ≥30,−0.57
same,"Change from Baseline in ISS7 at Week 12, LS Mean",[1],−6.93
same,"Change from Baseline in ISS7 at Week 12, LS Mean Diff vs. placebo",[1],−0.15
same,"Change from Baseline in ISS7 at Week 12, LS Mean",[2],−7.37
same,"Change from Baseline in ISS7 at Week 12, LS Mean Diff vs. placebo",[2],−0.86
same,"Change from Baseline in ISS7 at Week 12, Mean",[2],−5.92
same,"Change from Baseline in ISS7 at Week 12, LS Mean",[3],−7.78
same,"Change from Baseline in ISS7 at Week 12, LS Mean Diff vs. placebo",[3],−2.31
same,"Change from Baseline in ISS7 at Week 12, Mean",[3],−7.62
same,"Change from Baseline in ISS7 at Week 12, LS Mean",[4],−7.91
same,"Change from Baseline in ISS7 at Week 12, LS Mean Diff vs. placebo",[4],−3.92
same,"Change from Baseline in ISS7 at Week 12, LS Mean",[5],−7.62
same,"Change from Baseline in ISS7 at Week 12, LS Mean Diff vs. placebo",[5],−3.53
same,"Change from Baseline in ISS7 at Week 12, Mean",[5],−8.88
same,"Change from Baseline in ISS7 at Week 12, LS Mean",[6],−6.15
same,"Change from Baseline in ISS7 at Week 12, LS Mean Diff vs. placebo",[6],−1.29
same,"Change from Baseline in ISS7 at Week 12, LS Mean",[7],−8.44
same,"Change from Baseline in ISS7 at Week 12, LS Mean Diff vs. placebo",[7],−1.60
same,"Change from Baseline in ISS7 at Week 12, Mean",[7],−9.03
same,"Change from Baseline in ISS7 at Week 12, LS Mean",[8],−6.73
same,"Change from Baseline in ISS7 at Week 12, LS Mean Diff vs. placebo",[8],−3.25
same,"Change from Baseline in ISS7 at Week 12, Mean",[8],−6.20
same,"Change from Baseline in ISS7 at Week 12, LS Mean",Baseline ISS7 score <13,−5.14
same,"Change from Baseline in ISS7 at Week 12, LS Mean Diff vs. placebo",Baseline ISS7 score <13,−2.42
same,"Change from Baseline in ISS7 at Week 12, Mean",Baseline ISS7 score <13,−5.28
same,"Change from Baseline in ISS7 at Week 12, LS Mean",Baseline ISS7 score ≥13,−7.87
same,"Change from Baseline in ISS7 at Week 12, LS Mean Diff vs. placebo",Baseline ISS7 score ≥13,−2.14
same,"Change from Baseline in ISS7 at Week 12, Mean",Baseline ISS7 score ≥13,−8.03
same,"Change from Baseline in ISS7 at Week 12, LS Mean",[9],−8.29
same,"Change from Baseline in ISS7 at Week 12, LS Mean Diff vs. placebo",[9],−4.06
same,"Change from Baseline in ISS7 at Week 12, Mean",[9],−8.52
same,"Change from Baseline in ISS7 at Week 12, LS Mean",[10],−7.94
same,"Change from Baseline in ISS7 at Week 12, LS Mean Diff vs. placebo",[10],−3.43
same,"Change from Baseline in ISS7 at Week 12, Mean",[10],−7.93
same,"Change from Baseline in ISS7 at Week 12, LS Mean",[11],−6.91
same,"Change from Baseline in ISS7 at Week 12, LS Mean Diff vs. placebo",[11],−0.88
same,"Change from Baseline in ISS7 at Week 12, Mean",[11],−6.57
same,"Change from Baseline in ISS7 at Week 12, LS Mean",[12],−7.17
same,"Change from Baseline in ISS7 at Week 12, LS Mean Diff vs. placebo",[12],−0.62
same,"Change from Baseline in ISS7 at Week 12, Mean",[12],−6.20
same,"Change from Baseline in ISS7 at Week 12, LS Mean",Baseline UAS7 score <28,−5.40
same,"Change from Baseline in ISS7 at Week 12, LS Mean Diff vs. placebo",Baseline UAS7 score <28,−2.22
same,"Change from Baseline in ISS7 at Week 12, Mean",Baseline UAS7 score <28,−6.29
same,"Change from Baseline in ISS7 at Week 12, LS Mean",Baseline UAS7 score ≥28,−8.64
same,"Change from Baseline in ISS7 at Week 12, LS Mean Diff vs. placebo",Baseline UAS7 score ≥28,−2.04
same,"Change from Baseline in ISS7 at Week 12, Mean",Baseline UAS7 score ≥28,−8.21
same,"Change from Baseline in ISS7 at Week 12, LS Mean",[13],−6.89
same,"Change from Baseline in ISS7 at Week 12, LS Mean Diff vs. placebo",[13],0.14
same,"Change from Baseline in ISS7 at Week 12, Mean",[13],−8.05
same,"Change from Baseline in ISS7 at Week 12, LS Mean",Duration of disease (years) <2,−8.54
same,"Change from Baseline in ISS7 at Week 12, LS Mean Diff vs. placebo",Duration of disease (years) <2,−4.89
same,"Change from Baseline in ISS7 at Week 12, Mean",Duration of disease (years) <2,−7.53
same,"Change from Baseline in ISS7 at Week 12, LS Mean",[14],5.36
same,"Change from Baseline in ISS7 at Week 12, LS Mean Diff vs. placebo",[14],9.04
same,"Change from Baseline in ISS7 at Week 12, Mean",[14],1.67
same,"Change from Baseline in ISS7 at Week 12, LS Mean",Ethnicity Hispanic,−5.19
same,"Change from Baseline in ISS7 at Week 12, LS Mean Diff vs. placebo",Ethnicity Hispanic,1.82
same,"Change from Baseline in ISS7 at Week 12, Mean",Ethnicity Hispanic,−4.42
same,"Change from Baseline in ISS7 at Week 12, LS Mean",Ethnicity Non-Hispanic,−8.43
same,"Change from Baseline in ISS7 at Week 12, LS Mean Diff vs. placebo",Ethnicity Non-Hispanic,−3.96
same,"Change from Baseline in ISS7 at Week 12, Mean",Ethnicity Non-Hispanic,−8.59
same,"Change from Baseline in ISS7 at Week 12, Mean",Gender Female,−6.99
same,"Change from Baseline in ISS7 at Week 12, Mean",Gender Male,−8.17
same,"Change from Baseline in ISS7 at Week 12, LS Mean",History of angioedema No,−7.93
same,"Change from Baseline in ISS7 at Week 12, LS Mean Diff vs. placebo",History of angioedema No,−2.59
same,"Change from Baseline in ISS7 at Week 12, LS Mean",History of angioedema Yes,−6.26
same,"Change from Baseline in ISS7 at Week 12, LS Mean Diff vs. placebo",History of angioedema Yes,−1.01
same,"Change from Baseline in ISS7 at Week 12, Mean",History of angioedema Yes,−4.04
same,"ISS7 at Week 12, Mean",ITT population,7.61
same,"ISS7 at Week 12, Median",ITT population,7.00
same,"ISS7 change from baseline at Week 12, Mean",ITT population,−8.21
same,"ISS7 change from baseline at Week 12, Median",ITT population,−8.00
same,"ISS7 change from baseline at Week 12, LS Mean","ITT population, ANCOVA",−8.06 points
same,"ISS7 change from baseline at Week 12, LS Mean Diff vs. placebo","ITT population, ANCOVA",−1.75
same,LS mean change in ISS7 from baseline (see Table 29),"ITT population, following one week of treatment",−5.23 points
same,"Change from Baseline in ISS7 at Week 12, LS Mean",Race All the Others,−6.99
